Experimental data reported in patent US9078890B2, “Use of koumine and its homologues in preparation of medicament for treatment of autoimmune diseases of involved bones and joints” (priority 2011, dated 2015).
Marks after values point to notes of the source that are not given here.

How the values were obtained:
[1] = test system: type II collagen-induced arthritis rat; assay: Type II collagen-induced arthritis rat: condition and body weight; type: in vivo, Wistar rat
Experimental: (§1) Under aseptic conditions, 10 mg chicken type II collagen protein was fully mixed with 5 ml 10 mM glacial acetic acid solution, and stirred overnight in refrigerator at 4° C. to fully dissolve it. It was mixed with complete Freund's adjuvant in equal volume in ice bath to fully emulsify into an emulsion with a collagen concentration of 1 mg/ml.
(§2) Wistar rats are divided into a modeling group and a false modeling group. After the modeling group rats were narcotized with intraperitoneal injection of pentobarbital, the above emulsion was injected intracutaneously at 3 to 4 positions at back, tail root or the like, 0.3 ml for each, an primary immunity was carried out. After 7 days, a secondary immunity was carried out, the emulsifying agent complete Freund's adjuvant of initial immunity was replaced with incomplete Freund's adjuvant, 0.1 ml the emulsion was injected under sevoflurane inhalation anesthesia wherein the injection position is different from the last time. In false modeling group, the emulsion was replaced with solvent glacial acetic acid solution.
(§3) Successfully modeled rat in the modeling group were randomly divide into 5 groups: low, middle, high-dose koumine treatment group, positive control group, negative control group, 10 rats for each group. Beginning from Day 21 after modeling, corresponding intervention was carried out as following in 10 days continuously: 0.6, 3, 15 mg/kg koumine were intragastrically administrated to the low, middle, high-dose koumine treatment group respectively, 1 time every day; 1 mg/kg amethopterin was administrated to the positive control group, 1 time every 3 days, equal volume of physiological saline was administrated for the remained days; equal volume of physiological saline was administrated to the negative control group.

[2] = test system: type II collagen-induced arthritis rat; assay: Type II collagen-induced arthritis rat: thermal hyperalgesia (thermal withdrawal latency); type: in vivo, Wistar rat; details: amethopterin 1 mg/kg once every 3 days
Experimental: as §1, §2, §3
1 hour after intragastric administration, the thermal withdrawal latency of each group was determined by the photo-thermal dolorimeter; the mechanical pain threshold of rats of each group was determined by Von-frey electromechanical pain threshold detector, thus the condition of thermal hyperalgesia and mechanical hyperalgesia of rats of each group was observed.

adjuvant arthritis mice = assay: Adjuvant arthritis mice: hyperalgesia (phlogogenic paw thermal withdrawal latency); type: in vivo, Kunming mice
Experimental: BCG was inactivated in water bath at 80° C., and fully emulsified along with complete Freund's adjuvant to form complete Freund's adjuvant emulsion containing 5 mg/ml BCG, preserved at 4° C., and shake well before use. The Kunming mice were divided into a modeling group and a false modeling group. According to the method recited in the literature [Rasool M, Sabina E P, Lavanya B. Anti-inflammatory effect of Spirulina fusiformis on adjuvant-induced arthritis in mice. Biol Pharm Bull. 2006, 29(12):2483-7], for the modeling group, the model was prepared by intradermal injection of 20 ul the emulsion under the plantar surface of right paws after the mice was narcotized; for the false modeling group, the emulsion was replaced with physiological saline. For the modeling group, the animals were screened on Day 8 after injection: the mice with the injected paw thickness increased >0.5 mm and thermal hyperalgesia occurred (paw thermal withdrawal latency <8 second) were selected as experimental subjects. The selected mice were divided into 5 groups randomly: low, middle, high dose treatment group (0.8, 4, 20 mg/kg); indomethacin positive control group (10 mg/kg); negative control group (physiological saline), each comprising 12 animals. Day 8 after inflammation, intragastric administration was carried out on each group to give corresponding intervention, one time per day for 10 days continuously.
30 min after intragastric administration, the phlogogenic paw thermal withdrawal latency of the mice in each group was determined by photo-thermal dolorimeter to reflect animals' hyperalgesia status.

| Compound | Body weight after intervention, Day 7 ([1]; amethopterin 1 mg/kg once every 3 days from Day 21, Day 7) [g] | Body weight after intervention, Day 14 ([1]; amethopterin 1 mg/kg once every 3 days from Day 21, Day 14) [g] | Body weight after intervention, Day 21 ([1]; amethopterin 1 mg/kg once every 3 days from Day 21, Day 21) [g] | Body weight after intervention, Day 31 ([1]; amethopterin 1 mg/kg once every 3 days from Day 21, Day 31) [g] | Body weight before intervention ([1]; amethopterin 1 mg/kg once every 3 days, from Day 21 after modeling for 10 days, before intervention) [g] | Thermal stimulus withdrawal latency, Before intervention ([2]; before intervention) [s] | Thermal stimulus withdrawal latency, Intervention Day 2 ([2]; intervention Day 2) [s] | Thermal stimulus withdrawal latency, Intervention Day 4 ([2]; intervention Day 4) | Thermal stimulus withdrawal latency, Intervention Day 6 ([2]; intervention Day 6) | Thermal stimulus withdrawal latency, Intervention Day 8 ([2]; intervention Day 8) | Thermal stimulus withdrawal latency, Intervention Day 10 ([2]; intervention Day 10) | Thermal stimulus withdrawal latency, Before intervention (adjuvant arthritis mice; indomethacin 10 mg/kg intragastric once daily for 10 days from Day 8 after inflammation, before intervention) [s] | Thermal stimulus withdrawal latency, Intervention Day 4 (adjuvant arthritis mice; indomethacin 10 mg/kg intragastric once daily from Day 8, Day 4) | Thermal stimulus withdrawal latency, Intervention Day 8 (adjuvant arthritis mice; indomethacin 10 mg/kg intragastric once daily from Day 8, Day 8) | Thermal stimulus withdrawal latency, Intervention Day 12 (adjuvant arthritis mice; indomethacin 10 mg/kg intragastric once daily from Day 8, Day 12) | Thermal stimulus withdrawal latency, Intervention Day 16 (adjuvant arthritis mice; indomethacin 10 mg/kg intragastric once daily from Day 8, Day 16) | Thermal stimulus withdrawal latency, Intervention Day 18 (adjuvant arthritis mice; indomethacin 10 mg/kg intragastric once daily from Day 8, Day 18) |
| --- | --- | --- | --- | --- | --- | --- | --- | --- | --- | --- | --- | --- | --- | --- | --- | --- | --- |
| CN(Cc1cnc2nc(N)nc(N)c2n1)c1ccc(C(=O)N[C@@H](CCC(=O)O)C(=O)O)cc1 [Positive control group, Amethopterin, reference compound] | 154.5 ± 8.36 | 178.2 ± 5.93 | 203.1 ± 9.11 | 227.0 ± 12.68 | 129.8 ± 6.21 | 8.05 ± 1.01 | 8.48 ± 0.73 | 9.15 ± 0.57**^★★ second | 9.27 ± 1.09**^★ second | 9.50 ± 1.08**^★★ second | 10.31 ± 1.21**^★ second |  |  |  |  |  |  |
| COc1ccc2c(c1)c(CC(=O)O)c(C)n2C(=O)c1ccc(Cl)cc1 [Positive control, Indomethacin, reference compound] |  |  |  |  |  |  |  |  |  |  |  | 13.8 ± 1.2 | 5.9 ± 1.1^★★ second | 4.1 ± 0.8^★★ second | 8.9 ± 0.9**^★ second | 9.8 ± 1.6**^★ second | 10.1 ± 1.2**^★★ second |
